Read-outs that look alike come from different tables or passages of the source.
Legend:
Intracellular ATP levels [1] = type: cell-based, rat; conditions: rat
Procedure: (§1) One test compound (Compound A) was received as dry powder and evaluated for potential cytotoxicity in a battery of in vitro assays. The compound was tested using both rat cardiomyocytes (CM) from rat neonates and a rat hepatoma (H4IIE) cell line. […] The cell supernatant or the cells themselves were harvested for biochemical analysis. General cytotoxicity was evaluated by monitoring membrane integrity, mitochondrial function, cell proliferation, oxidative stress, and apoptosis. In addition, interaction with P-glycoprotein (PgP) on H4IIE cells and solubility of the test compound were also assessed. The means of each exposure group (n=3-7) were calculated for each assay performed.
(§2) Experimental Protocol: The test compound was provided and stored at 4° C. until needed. Dosing solutions were prepared in complete culture medium. The rat hepatoma (H4IIE) cell line was used as the test system.
(§3) Intracellular ATP Levels: Cellular Adenosine triphosphate (ATP) was determined with an assay based on a reaction between ATP+D-luciferin+oxygen catalyzed by luciferase to yield Oxyluciferin+AMP+PPi+CO2+light. The emitted light is proportional to the amount of ATP present. […] In addition, a unique cell lysis reagent inhibits endogenous ATPases and therefore stabilizes cellular ATP by preventing its degradation to ADP. ATP is present in all-living cells and declines rapidly upon cell death. In addition, this assay in combination with the MTT assay provides an indicator of mitochondrial activity and energy status of the cell.
(§4) Plates were analyzed immediately or stored at −20° C. until needed. On the day of analysis, the plates were thawed and calibration curve prepared with ATP in the same liquid matrix as samples. ATP was quantified by adding ATP substrate solution and then reading luminescence on a Packard Fusion Luminescence or equivalent plate reader.
(§5) Intracellular ATP Levels: ATP levels in treated cells could be determined by using the regression coefficients obtained from the linear regression analysis of the calibration curve. Thus, values could be expressed as pmoles ATP/million cells. Background corrected luminescence was used to determine percent change relative to controls by dividing treated values by control values and multiplying by 100.

H4IIE cells = test: Caspase 3 activity (apoptosis); type: cell-based, rat
Procedure: as §1, §2
(§6) Caspase 3 Procedure: Caspase 3 activity was determined using a caspase substrate (DEVD, Asp-Glu-Val-Asp) labeled with a fluorescent molecule, 7-Amino4-methylcoumarin (AMC). Caspase 3 cleaves the tetrapeptide between D and AMC, thus releasing the fluorogenic […] AMC. Following the test article exposure to cells in 96-well plates, medium was aspirated from plates and PBS added to each well. Plates were stored at −80° C. to lyse cells and store samples until further analysis. On the day of analysis, plates were removed from freezer and thawed. Caspase buffer with fluorescent substrate was added to each well and incubated at room temperature for 1 hr. AMC release was measured in a spectrofluorometer at an excitation wavelength of 360 nm and an emission wavelength of 460 nm. Values are expressed as relative fluorescent units (RFU).
(§7) Caspase Activity: After sample plates were completely thawed, the caspase substrate buffer mix was added to each plate. Plates were incubated at room temperature for 1hr, shielded from light. Plates were read using a in a spectrofluorometer at an excitation wavelength of 360 nm and an emission wavelength of 460 nm. Values were expressed as relative fluorescent units (RFU).
(§8) The key to the maximal response data can be found below Table 2.

rat cardiomyocytes = test: Caspase 3 activity (apoptosis); type: cell-based
Procedure: as §1, §6, §7, §8

human hepatocytes = test: Predicted Ctox from Tox-Panel; type: cell-based; conditions: 24 HR
Procedure: Studies such as these indicate that a preferred concentration for setting Ctox is the highest concentration at which there is no observed effect on any of the indicators being measured in the cluster analysis, especially a 24-hour cluster analysis. […] It will be apparent that 24 hour assays are more time-effective, and consequently, the 24 hour NOEL/Ctox represents a preferred data point to select as Ctox in a CATS assay. It will also be apparent that, with further time studies, it may be possible to select an equally suitable Ctox at other CATS assay time points (e.g., between 24 and 72 hours, or less than 24 hours).
In certain embodiments, the predicting comprises performing concentration response analyses of measurements from at least three separate assays that are employed in the cluster analysis. […] From these concentration response analyses, the highest concentration of the chemical compound at which a measurable toxic effect of the chemical compound is not observable, i.e. NOEL, is determined and the Ctox is identified as the concentration that correlates to the NOEL. […]
The results are summarized in Tables 14-17 and in FIGS. 83-102. […] Assay response is continually monitored to assure reliable results. […]

Intracellular ATP levels [2] = type: cell-based; conditions: read-out: ATP TC50; for CC50 at 72 h: SK-MEL28, 72 HR, run #2
Procedure: as §3, §4, §5
Dosing solutions were prepared in complete culture medium.

P-glycoprotein (PgP) = P-glycoprotein (PgP) (Homo sapiens, UniProt P08183); test: P-glycoprotein (PgP) binding: MTT with and without cyclosporin A, HUVEC; type: cell-based; design: SK-MEL28, human hepatocytes, HUVEC, C32, and NHEM cells were used as the test systems; endogenous in cells; conditions: HUVEC 24 HR; for % Control (Compound + CSA): with cyclosporin A; for % Control (Compound): without CSA
Chain of P-glycoprotein (PgP) (P08183 whole entry): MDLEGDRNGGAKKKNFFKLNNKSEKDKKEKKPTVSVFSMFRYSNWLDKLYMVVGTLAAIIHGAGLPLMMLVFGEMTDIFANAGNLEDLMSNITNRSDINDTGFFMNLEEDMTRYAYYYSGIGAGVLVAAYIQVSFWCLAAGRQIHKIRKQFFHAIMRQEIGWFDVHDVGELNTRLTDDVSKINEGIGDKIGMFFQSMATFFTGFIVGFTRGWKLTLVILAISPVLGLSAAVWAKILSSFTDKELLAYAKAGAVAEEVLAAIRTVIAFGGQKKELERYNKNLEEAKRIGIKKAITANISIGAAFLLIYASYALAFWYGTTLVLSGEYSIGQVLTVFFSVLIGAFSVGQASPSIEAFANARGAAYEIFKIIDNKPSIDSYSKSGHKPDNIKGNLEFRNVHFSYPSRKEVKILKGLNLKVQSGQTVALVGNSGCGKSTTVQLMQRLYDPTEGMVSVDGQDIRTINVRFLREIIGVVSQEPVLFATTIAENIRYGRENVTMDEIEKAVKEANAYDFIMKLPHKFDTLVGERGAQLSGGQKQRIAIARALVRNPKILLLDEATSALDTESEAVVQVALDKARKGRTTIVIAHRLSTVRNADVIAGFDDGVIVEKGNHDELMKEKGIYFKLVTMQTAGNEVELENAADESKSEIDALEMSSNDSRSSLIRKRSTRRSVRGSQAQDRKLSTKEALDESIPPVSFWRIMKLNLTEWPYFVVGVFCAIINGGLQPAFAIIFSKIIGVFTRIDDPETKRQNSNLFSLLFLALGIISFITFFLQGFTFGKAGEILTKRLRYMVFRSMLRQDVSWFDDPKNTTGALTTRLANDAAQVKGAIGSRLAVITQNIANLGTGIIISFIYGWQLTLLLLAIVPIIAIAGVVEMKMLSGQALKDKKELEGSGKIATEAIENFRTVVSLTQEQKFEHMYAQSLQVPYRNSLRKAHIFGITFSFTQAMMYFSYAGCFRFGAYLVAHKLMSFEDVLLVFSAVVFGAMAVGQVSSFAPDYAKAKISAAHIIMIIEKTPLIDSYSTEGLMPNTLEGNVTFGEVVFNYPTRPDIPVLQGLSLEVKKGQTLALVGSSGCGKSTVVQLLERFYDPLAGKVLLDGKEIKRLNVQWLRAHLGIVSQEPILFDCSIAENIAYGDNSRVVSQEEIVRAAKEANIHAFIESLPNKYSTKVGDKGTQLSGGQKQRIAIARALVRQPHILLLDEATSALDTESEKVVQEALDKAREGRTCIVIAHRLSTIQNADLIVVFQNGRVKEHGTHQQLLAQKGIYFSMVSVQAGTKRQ

[3] = H4IIE rat hepatoma cells, H4IIE, 24 HR exposure, read-out: ATP TC50
[4] = H4IIE, 24 HR, exposure concentration that produced the response (μM series)

Cc1cccc(C)c1OCC(=O)N[C@@H](Cc1ccccc1)[C@@H](O)C[C@H](Cc1ccccc1)NC(=O)[C@H](C(C)C)N1CCCNC1=O [LOPINAVIR, lopinavir]
CC50 at 24 h (Intracellular ATP levels [1]; ATP TC50): 195 µM
Caspase 3 Activity (Index/Dose): Dose (H4IIE cells; rat, 24 h): 300
Caspase 3 Activity (Index/Dose): Dose (rat cardiomyocytes; rat, 24 h): 100

CC[C@@]1(O)C(=O)OCc2c1cc1n(c2=O)Cc2cc3ccccc3nc2-1 [CAMPTOTHECIN, Camptothecin]
CC50 at 24 h (Intracellular ATP levels [1]; [3]): 1 µM
Caspase 3 Activity (Index/Dose): Index (H4IIE cells; H4IIE, 24 HR): 5 (800-1000 = 5)
Caspase 3 Activity (Index/Dose): Dose (H4IIE cells; [4]): 100
Predicted Ctox (human hepatocytes): 23 µM
Caspase 3 Activity (Index/Dose): Index (rat cardiomyocytes; CM, 24 HR): 6 (1000-1200 = 6)
Caspase 3 Activity (Index/Dose): Dose (rat cardiomyocytes; CM, 24 HR, exposure concentration that produced the response (μM series)): 300
CC50 at 24 h (Intracellular ATP levels [2]; human, HUVEC): 40 µM
CC50 at 24 h (Intracellular ATP levels [2]; human, SK-MEL28 cells, SK-MEL28, 24 HR): 293 µM
CC50 at 72 h (Intracellular ATP levels [2]; human, SK-MEL28 cells): 0.1 µM
% Control (Compound + CSA) (P-glycoprotein (PgP)): 18.0%
% Control (Compound) (P-glycoprotein (PgP)): 29.4%

COc1cccc2c1C(=O)c1c(O)c3c(c(O)c1C2=O)C[C@@](O)(C(=O)CO)C[C@@H]3O[C@H]1C[C@H](N)[C@@H](O)[C@H](C)O1 [EPIRUBICIN, epirubicin]
CC50 at 24 h (Intracellular ATP levels [1]; ATP TC50): 32 µM
Caspase 3 Activity (Index/Dose): Dose (H4IIE cells; rat, 24 h): 50
Caspase 3 Activity (Index/Dose): Dose (rat cardiomyocytes; rat, 24 h): 20

COc1cccc2c1C(=O)c1c(O)c3c(c(O)c1C2=O)C[C@@](O)(C(=O)CO)C[C@@H]3O[C@H]1C[C@H](N)[C@H](O[C@@H]2CCCCO2)[C@H](C)O1 [PIRARUBICIN, pirarubicin]
CC50 at 24 h (Intracellular ATP levels [1]; [3]): 8 µM
Caspase 3 Activity (Index/Dose): Index (H4IIE cells; H4IIE, 24 HR): 8 (1400-1600 = 8)
Caspase 3 Activity (Index/Dose): Dose (H4IIE cells; [4]): 10 (1800-2000 = 10)

O=C1c2c(O)ccc(O)c2C(=O)c2c(NCCNCCO)ccc(NCCNCCO)c21 [MITOXANTRONE, mitoxantrone]
CC50 at 24 h (Intracellular ATP levels [1]; ATP TC50): 5 µM

CC(C)Nc1cccnc1N1CCN(C(=O)c2cc3cc(NS(C)(=O)=O)ccc3[nH]2)CC1 [DELAVIRDINE, delavirdine]
CC50 at 24 h (Intracellular ATP levels [1]; ATP TC50): 257 µM
Caspase 3 Activity (Index/Dose): Dose (rat cardiomyocytes; rat, 24 h): 100

CC(=O)[C@]1(O)Cc2c(O)c3c(c(O)c2[C@@H](O[C@H]2C[C@H](N)[C@H](O)[C@H](C)O2)C1)C(=O)c1ccccc1C3=O [IDARUBICIN, idarubicin]
CC50 at 24 h (Intracellular ATP levels [1]; ATP TC50): 2 µM

O=C1Nc2ccc(Cl)cc2[C@@](C#CC2CC2)(C(F)(F)F)O1 [EFAVIRENZ, efavirenz]
CC50 at 24 h (Intracellular ATP levels [1]; ATP TC50): 162 µM

Nc1nc(NC2CC2)c2ncn([C@H]3C=C[C@@H](CO)C3)c2n1 [ABACAVIR, abacavir]
CC50 at 24 h (Intracellular ATP levels [1]; ATP TC50): 154 µM

C=C(C)[C@H]1Cc2c(ccc3c2O[C@@H]2COc4cc(OC)c(OC)cc4[C@@H]2C3=O)O1 [ROTENONE, Rotenone]
CC50 at 24 h (Intracellular ATP levels [1]; H4IIE, 24 HR exposure, read-out: ATP TC50): 0.04 µM
Predicted Ctox (human hepatocytes): 0.6 µM
CC50 at 24 h (Intracellular ATP levels [2]; human hepatocytes): 6 µM
CC50 at 72 h (Intracellular ATP levels [2]; human, SK-MEL28 cells): 2 µM
% Control (Compound + CSA) (P-glycoprotein (PgP)): 77.8%
% Control (Compound) (P-glycoprotein (PgP)): 75.4%

COc1cccc2c1C(=O)c1c(O)c3c(c(O)c1C2=O)C[C@@](O)(C(C)=O)C[C@@H]3O[C@H]1C[C@H](N)[C@H](O)[C@H](C)O1 [DAUNORUBICIN, daunorubicin]
CC50 at 24 h (Intracellular ATP levels [1]): 7 µM

Reference: US7615361B2, “Toxicity screening methods” (Ceetox, Inc., priority 2006, dated 2009)
